For one test, the target named is FKBP12 (Homo sapiens, UniProt P62942). The test can be described thus: Ki test: inhibition of peptidyl-prolyl isomerase (rotamase) activity, chymotrypsin-coupled assay.
FKBP12, sequence (P62942 whole entry, species assumed): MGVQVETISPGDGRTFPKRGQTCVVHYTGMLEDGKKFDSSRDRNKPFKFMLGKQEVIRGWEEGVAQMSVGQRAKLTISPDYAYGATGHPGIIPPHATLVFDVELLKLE
Conditions: not given
Type of test: biochemical. The source says: The inhibition of the prolyl peptidyl cis-trans isomerase activity of FKBP may be measured as an indicator of this affinity.
Inhibition of the peptidyl-prolyl isomerase (rotamase) activity of the compounds used in the inventive methods and pharmaceutical compositions can be evaluated by known methods described in the literature (Harding et al., Nature, 1989, 341:758-760; Holt et al. J. Am. Chem. Soc., 115:9923-9938).
The cis-trans isomerization of an alanine-proline bond in a model substrate, N-succinyl-Ala-Ala-Pro-Phe-p-nitroanilide, is monitored spectrophotometrically in a chymotrypsin-coupled assay, which releases paranitroanilide from the trans form of the substrate. The inhibition of this reaction caused by the addition of different concentrations of inhibitor is determined, and the data is analyzed as a change in first-order rate constant as a function of inhibitor concentration to yield the apparent K1 values.
In a plastic cuvette are added […] of ice cold assay buffer (25 mM HEPES, pH 7.8, 100 mM NaCl), 10 mL of FKBP (2.5 mM in 10 mM Tris-Cl pH 7.5, 100 mM NaCl, 1 mM dithiothreitol), 25 mL of chymotrypsin (50 mg/ml in 1 mM HCl) and […] of test compound at various concentrations in dimethyl sulfoxide. The reaction is initiated by the addition of 5 mL of substrate (succinyl-Ala-Phe-Pro-Phe-para-nitroanilide, 5 mg/mL in 2.35 mM LiCl in trifluoroethanol).
The absorbance at 390 nm versus time is monitored for 90 seconds using a spectrophotometer and the rate constants are determined from the absorbance versus time data files.
`O=C(C(=O)N1CCCCC1C(=O)CCCCCc1ccccc1)C1CCCCC1` (centres unmarked) [Compound 68] displayed a Ki of 284 nM.
The same measure, in the same setting: the value for `CC(C)(C)C(=O)C(=O)N1CCCCC1C(=O)C(CCc1ccccc1)CCc1ccccc1` (centres unmarked) [Compound 69] was 49 nM.

Still in this test, the particulars now being: apparent Ki, rotamase inhibition; read-out: Ki.
In the case of “3-(3-Fluorophenyl)propyl 1-(3,3-dimethyl-2-oxopentanoyl)-2-piperidinecarbothioate [Compound 64]”, the Ki turned out to be 163 nM.
For “3-Phenyl-1-propyl 1-(3,3-dimethyl-1,2-dioxobutyl)-2-piperidinecarbothioate [Compound 29]”, the Ki was found to be 59 nM.
The same measure, in the same setting: the value for “4-Phenyl-1-butyl (2S)-1-(2-cyclohexyl-1,2-dioxoethyl)-2-pyrrolidinecarbothioate [Compound 33]” was 1700 nM; that for “3-Phenyl-1-propyl (2S)-1-(2-cyclohexyl-1,2-dioxoethyl)-2-pyrrolidinecarbothioate [Compound 32]” was 362 nM.
With “2-Phenyl-1-ethyl 1-(2-phenyl-1,2-dioxoethyl)-2-piperidinecarbothioate [Compound 14]”, the Ki was determined as 313 nM.
Still for that read-out and setting: the value for `CCC(C)(C)C(=O)C(=O)N1CCC[C@H]1C(=O)CCCC(c1ccc(F)cc1)c1ccc(F)cc1` [Compound 70, 1-{(2S)-2-[5,5-di(4-Fluorophenyl)pentanoyl]-2-pyrrolidine}-3,3-dimethyl-1,2-pentanedione] was 457 nM.
Turning to “3-Phenylpropyl 1-(3,3-dimethyl-2-oxopentanoyl)-2-piperidinecarbothioate [Compound 60]”, the Ki turned out to be 90 nM.
Take `CCC(C)(C)C(=O)C(=O)N1CCC[C@H]1C(=O)CCCCc1ccccc1` [Compound 1]: the Ki came to 31 nM.
Regarding “3-(para-Methoxyphenyl)-1-propyl 1-(2-phenyl-1,2-dioxoethyl)piperidine-2-carbothioate [Compound 43]”, the Ki was determined as 259 nM.
Still for that read-out and setting: the value for “3-(3-Pyridyl)-1-propyl (2S)-1-(2-cyclohexyl-1,2-dioxoethyl)-2-pyrrolidinecarbothioate [Compound 35]” was 62 nM; that for “3-(3-Chlorophenyl)propyl (2S)-1-(3,3-dimethyl-2-oxopentanoyl)-2-pyrrolidinecarbothioate [Compound 54]” was 37 nM; that for “3-(3-Fluorophenyl)propyl (2S)-1-(3,3-dimethyl-2-oxopentanoyl)-2-pyrrolidinecarbothioate [Compound 58]” was 79 nM.
Still for that read-out and setting: the value for “3-(2-Chlorophenyl)propyl (2S)-1-(3,3-dimethyl-2-oxopentanoyl)-2-pyrrolidinecarbothioate [Compound 61]” was 139 nM; that for “4,4-Di(para-fluorophenyl)butyl 1-(3,3-dimethyl-2-oxopentanoyl)-2-pyrrolidinecarbothioate [Compound 46]” was 757 nM; that for `CCC(C)(C)C(=O)C(=O)N1CCCCC1C(=O)SCCCc1ccc2ccccc2c1` [Compound 53, 3-(2-Naphthyl)propyl (2R,S)-1-(3,3-dimethyl-2-oxopentanoyl)-2-piperidinecarbothioate] was 261 nM.
Regarding “2-Phenyl-1-ethyl 1-(3,3-dimethyl-1,2-dioxopentyl)-2-piperidinecarbothioate [Compound 10]”, the Ki is 12 nM.
On the same count and under the same terms, the value for “2-Phenyl-1-ethyl (2S)-1-(1-cyclopentyl-1,2-dioxoethyl)-2-pyrrolidinecarbothioate [Compound 28]” was 108 nM.
Take “2,2-Diphenylethyl (2S)-1-(3,3-dimethyl-2-oxopentanoyl)-2-piperidinecarbothioate [Compound 49]”: the Ki turned out to be 1330 nM.
On the same count and under the same terms, the value for “1,5-Diphenyl-3-pentyl 1-(3,3-dimethyl-1,2-dioxopentyl)-2-piperidinecarbothioate [Compound 40]” was 1230 nM; that for “3-(1-Naphthyl)propyl (2S)-1-(3,3-dimethyl-2-oxopentanoyl)-2-pyrrolidinecarbothioate [Compound 47]” was 21 nM.
Same read-out and setting: the value for “4-Phenyl-1-butyl (2S)-1-(3,3-dimethyl-1,2-dioxopentyl)-2-pyrrolidinecarbothioate [Compound 34]” was 34 nM; that for `CCC(C)(C)C(=O)C(=O)N1CCC[C@H]1C(=O)SCCC(c1ccc(F)cc1)c1ccc(F)cc1` [Compound 45, 3,3-Di(para-fluoro)phenyl-1-propyl (2S)-1-(3,3-dimethyl-1,2-dioxopentyl)-2-pyrrolidinecarbothioate] was 31 nM; that for “3-(2-Fluorophenyl)propyl (2S)-1-(3,3-dimethyl-2-oxopentanoyl)-2-pyrrolidinecarbothioate [Compound 57]” was 57 nM.
On the same count and under the same terms, the value for `CCC(C)(C)C(=O)C(=O)N1CCC[C@H]1C(=O)SCc1csc2ccccc12` [Compound 11, (3-Thioindolyl)methyl (2S)-1-(3,3-dimethyl-1,2-dioxopentyl)-2-pyrrolidinecarbothioate] was 299 nM; that for “2-Phenyl-1-ethyl (2S)-1-(2-cyclohexyl-1,2-dioxoethyl)-2-pyrrolidinecarbothioate [Compound 12]” was 442 nM; that for “4-Phenyl-1-butyl 1-(1,2-dioxo-3,3-dimethylbutyl)-2-piperidinecarbothioate [Compound 39]” was 347 nM.
Regarding “3-(1-Naphthyl)-1-propyl 1-(3,3-dimethyl-1,2-dioxopentyl)piperidine-2-carbothioate [Compound 44]”, the Ki is 188 nM.
Still for that read-out and setting: the value for “4-Phenylbutyl 1-(3,3-dimethyl-2-oxopentanoyl)-2-piperidinecarbothioate [Compound 59]” was 962 nM.

A further test concerns C57 black 6 mice. Kind of test: In vivo hair generation test, Experiment A. As to conditions: 30 μM topical, 3 applications over 5 days, after six weeks. The text has this:
Care was taken not to nick or cause abrasion to the underlaying dermal layers. The animals were in anagen growth phase, as indicated by the pinkish color of the skin. […] Hair growth was quantitated by the percent of shaved area covered by new hair growth during this time period.
Turning to `CCC(C)(C)C(=O)C(=O)N1CCC[C@H]1C(=O)OCCCc1cccnc1` [GPI 1046, 3-(3-pyridyl)-1-propyl (2s)-1-(3,3-dimethyl-1,2-dioxopentyl)-2-pyrrolidinecarboxylate], the “hair regrowth in shaved area” value is on record as “essentially complete hair regrowth”.

A further test deals with C57 black 6 mice. The test can be described thus: In vivo hair generation test, Experiment B. The note with it: one micromole per milliliter topical, three times per week, 14 days after initiation of treatment. Here is the method: Care was taken not to nick or cause abrasion to the underlying dermal layers. The animals were in anagen growth phase when shaved. […] The animals were treated three times per week, and hair growth was evaluated 14 days after initiation of treatment.
Consider `CCC(C)(C)C(=O)C(=O)N1CCC[C@H]1C(=O)SCCC(c1ccccc1)c1ccccc1` [GPI 1234], for which the “hair growth (relative hair growth index, FIG. 5)” value is on record as “dramatic hair growth”.

(Values after US20020016341A1, “Heterocyclic thioester and ketone hair growth compositions and uses” (priority 1998, published 2002).)
